Results: patent US9636317B2, “Compositions and methods of use of phorbol esters” (priority 2007, dated 2017)
Values joined by “and” are separate entries in the source; they are usually repeats but may differ in a detail not shown here. Equal values may be shown once. “Also recorded” adds a separate entry of the source. Read-outs that look alike come from different tables or passages of the source.

Legend:
CD3, CD4, CD8 = experiment: Second clinical study of HIV+ patients: CD3, CD4, CD8; type: in vivo, human; set-up: CD4 / CD8 / CD3: unit not given here; conditions: for CD4 / CD3 / CD8: one value per patient
Protocol: Nine of the patients in Example III were given a second treatment of TPA. Of these nine, seven were asymptomatic at the beginning of the second trial. A tenth patient (patient #2a) who was symptomatic and had not previously been treated with TPA was added to the study. Each patient was administered a weight adjusted dosage of TPA (75 μg/sq m) in 200 ml of sterile saline intravenously over one hour. This dosage was given to each patient once a day for ten consecutive days followed by a rest period of ten days for three cycles and a total of 30 doses of TPA. Patients 5a, 6a, and 8a stopped taking anti-AIDS drugs one month prior to beginning the TPA treatment and beginning again one month after the third cycle. Patients 1-4-a, 7a, and 9a-10a continued taking anti-AIDS drugs throughout the treatment.
Blood samples were taken three days prior to starting treatment, after completing the first 10 day cycle of TPA infusion and again after the last TPA infusion and CD3, CD4, CD8, WBC, RBC, HGB and platelets were measured.

[1] = Anti-aging properties of TPA (patient case); type: in vivo, human; conditions: 1.25 ampoules of 0.125 mg/m^2 every other day for two months
Protocol: Patient eight, person, was being treated for prostate hypertrophy with 1.25 ampoules of 0.125 mg/m^2 every other day for two months.

[2] = Treatment of urinary incontinence (patient cases); type: in vivo, human
Text: Patient twelve has suffered from urinary incontinence for more than 30 years.
Patient one has suffered from urinary incontinence for fifteen years.

HIV = type: in vivo; conditions: for HIV: antiretroviral therapy stopped, one value per patient
Protocol: Six patients, two males and four females between the ages of 37 and 52 years of age (Patients #13-18), were treated with TPA. Four of these patients previously received TPA treatment in combination with anti-HIV drugs in the two previous clinical studies. […] All treatments were stopped three days prior to the initiation of the third clinical study and were not resumed until 60 days after completion of the TPA treatment. The resumption of the standard HIV treatments was required by local health authorities.
(§1) Each patient in the study received 150 μg of TPA in 200 ml of sterile saline by intravenous infusion over a 1.5 to 2 hour period daily for 60 days for a total administered dose of 9.0 mg. Following completion of the 60 days of TPA therapy, these patients remained under observation for an additional 60 days though the received no further treatment.
(§2) CD3, CD4 and CD8 levels in peripheral blood were quantitated prior to starting treatment, and again at 30 and 60 days using flow cytometry and the appropriate antibodies obtained from B.D. Bioscience, San Diego, Calif. Viral load was determined using conventional methods at Kuang Ann men Hospital, Beijing, China. Patients RBC, WBC, platelets and hemoglobin levels were also measured.

[3] = test system: HIV-cytopathic effects on MT-4 cells; conditions: cited from earlier work
[4] = test system: circulating white blood cells and neutrophils; conditions: patients whose bone marrow function has been depressed by chemotherapy; cited from earlier work
[5] = Treatment of individuals who have suffered a stroke (patient cases); type: in vivo, human
Protocol: Patient seven, suffered a stroke eighteen months prior to treatment with TPA. At the time TPA treatment was initiated, they were unable to walk without a cane, had difficulty with both their left hand and left leg and was tired and weak. They received injections of 1 ampoule containing 0.19 mg of TPA (0.125 mg/m^2) every other day for four weeks, then 0.24 mg of TPA (1.25×0.125 mg/m^2) every other day for 2 weeks, and then 0.26 mg of TPA (1.5×0.125 mg/m^2) every other day for an additional 3 weeks.
Patient four, suffered a stroke seven years prior to beginning treatment with TPA. They received 3-4 injections of 0.19 mg of TPA (0.125 mg/m^2) per week for ten weeks for a total of 35 injections.

HIV patients = experiment: Third clinical study of HIV+ patients: symptoms and side effects (incl. case studies); type: in vivo, human
Protocol: Six patients, two males and four females between the ages of 37 and 52 years of age (Patients #13-18), were treated with TPA. Four of these patients previously received TPA treatment in combination with anti-HIV drugs in the two previous clinical studies. The two remaining patients had never been treated with TPA, but had previously received anti-HIV drug regimens. All treatments were stopped three days prior to the initiation of the third clinical study and were not resumed until 60 days after completion of the TPA treatment. The resumption of the standard HIV treatments was required by local health authorities.
as §1
Results of treatment of initially symptomatic AIDS patients treated with TPA according to the protocols of Example III, IV, and V. Patients who participated in multiple studies are in some cases identified by more than one patient number. All patient identification numbers correspond to the patient numbers in Tables 1-7.

terminal lung cancer = experiment: Treatment of lung cancer (patient case); type: in vivo, human; conditions: 35 injections, 0.19 to 0.26 mg TPA three to four times a week
Text: Patient ten was diagnosed with terminal lung cancer which was refractory to chemotherapy. The cancer metastasized into their bones leaving them unable to walk.

[6] = Third clinical study of HIV+ patients: periphery blood profile; type: in vivo, human; conditions: one value per patient
Protocol: as §1
as §2, with “measured. […]” for “measured.”

[7] = After first 10-day TPA infusion cycle
[8] = After third 10-day TPA infusion cycle

CCCCCCCCCCCCCC(=O)O[C@@H]1[C@@H](C)[C@@]2(O)[C@@H](C=C(CO)C[C@]3(O)C(=O)C(C)=C[C@@H]23)[C@@H]2C(C)(C)[C@]12OC(C)=O [TPA, 12-O-tetradecanoylphorbol-13-acetate]
CD4 (CD3, CD4, CD8; After first 10-day TPA infusion cycle, 75 μg/sq m i.v. daily): 76 and 460 and 189 and 91 and 285 and 729 and 519 and 136 and 74 and 7 | CD3 (CD3, CD4, CD8; [7]): 476 and 1200 and 823 and 1598 and 758 and 3148 and 1143 and 712 and 333 and 1323 | CD8 (CD3, CD4, CD8; [7]): 335 and 729 and 584 and 1507 and 429 and >2000 and 547 and 574 and 261 and 907 | CD3 (CD3, CD4, CD8; [8]): 625 and 2033 and 1193 and 1257 and 938 and 3347 and 1295 and 1317 and 308 and 2037 | CD4 (CD3, CD4, CD8; [8]): 137 and 1002 and 205 and 94 and 276 and 786 and 495 and 100 and 63 and 19 | CD8 (CD3, CD4, CD8; [8]): 543 and 980 and 916 and 1127 and 466 and >2000 and 733 and 1221 and 208 and 1129 | CD3 (summary of Table 3) (CD3, CD4, CD8; after the first and third infusion with TPA): increase in CD3 in all patients | skin [1]: their skin became softer and had fewer wrinkles | urinary frequency ([2]; nine injections of 0.18 mg of TPA): regained normal urinary frequency | urinary frequency ([2]; six injections of 0.18 mg of TPA): regained normal urinary frequency | HIV (HIV; Sixty Days After TPA): 0.038 copies/ml (All Figures in Mill and Undetectable (2×) and 0.012 copies/ml (All Figures in Mill and 0.056 copies/ml (All Figures in Mill and 0.133 copies/ml (All Figures in Mill | HIV (HIV; Thirty Days After TPA): 0.353 copies/ml (All Figures in Mill and 1.99 copies/ml (All Figures in Mill and 1.28 copies/ml (All Figures in Mill and 0.152 copies/ml (All Figures in Mill and 0.174 copies/ml (All Figures in Mill and 0.533 copies/ml (All Figures in Mill | viral load rebound after discontinuation of antiretroviral therapy (HIV; six patients, 150 μg TPA daily for 60 days): no rebound in viral levels; also recorded: no viral load rebound | HIV-cytopathic effects [3]: inhibit the HIV-cytopathic effects on MT-4 cells | circulating white blood cells and neutrophils [4]: increase in circulating white blood cells and neutrophils | recovery after stroke ([5]; stroke eighteen months before, 0.19, 0.24, 0.26 mg TPA every other day over 9 weeks): recovered fully | mobility in their face ([5]; stroke seven years before, 35 injections of 0.19 mg TPA): regained mobility in their face | improvement in the mobility of their right side ([5]; stroke seven years before, 35 injections of 0.19 mg TPA in ten weeks): 80% | recurrence of AIDS symptoms (HIV patients; 120 day observation and treatment period): no recurrence of AIDS symptoms | side effects of TPA treatment (individual patient) (HIV patients; protocol of Example V): local irritation due to a leaking needle; also recorded: a fever on one occasion; also recorded: skin irritation from a leaking needle; also recorded: no side effects | AIDS symptoms during and after treatment (individual patient) (HIV patients; protocol of Example V, antiviral therapy stopped): No AIDS symptoms returned; also recorded: remains symptom free; also recorded: No AIDS symptoms occurred | fever during TPA infusion (HIV patients; protocol of Example V, individual patients): 38-38.5 °C and 38-39 °C | outcome, terminal lung cancer metastasized into bones (terminal lung cancer): in remission and able to walk normally | PLt ([6]; Fifteen Days After TPA): 1.69e+11 L⁻¹ and 2.19e+11 L⁻¹ and 4.15e+11 L⁻¹ and 1.51e+11 L⁻¹ and 2.08e+11 L⁻¹ and 2.4e+11 L⁻¹ | RBC ([6]; Fifteen Days After TPA): 4.03e+12 L⁻¹ and 3.41e+12 L⁻¹ and 3.65e+12 L⁻¹ and 2.98e+12 L⁻¹ and 3.69e+12 L⁻¹ and 3.88e+12 L⁻¹ | Rb ([6]; Fifteen Days After TPA): 114 g/L and 101 g/L and 142 g/L and 118 g/L and 141 g/L and 140 g/L | WBC ([6]; Fifteen Days After TPA): 4.1 ×10^9/L and 5 ×10^9/L and 8.1 ×10^9/L (2×) and 6.4 ×10^9/L and 9 ×10^9/L | PLt ([6]; Forty Days After TPA): 3.04e+11 L⁻¹ and 1.52e+11 L⁻¹ and 2.62e+11 L⁻¹ and 2.91e+11 L⁻¹ and 1.31e+11 L⁻¹ and 1.49e+11 L⁻¹ | RBC ([6]; Forty Days After TPA): 3.9e+12 L⁻¹ and 4.44e+12 L⁻¹ and 4.13e+12 L⁻¹ and 3.86e+12 L⁻¹ and 3.49e+12 L⁻¹ and 4.14e+12 L⁻¹ | Rb ([6]; Forty Days After TPA): 125 g/L and 109 g/L and 110 g/L and 124 g/L and 116 g/L and 131 g/L | WBC ([6]; Forty Days After TPA): 4.6 ×10^9/L (2×) and 3.9 ×10^9/L (2×) and 6.2 ×10^9/L and 4.9 ×10^9/L | PLt ([6]; Sixty Days After TPA): 2.21e+11 L⁻¹ and 2.27e+11 L⁻¹ and 2.39e+11 L⁻¹ and 2.76e+11 L⁻¹ and 1.21e+11 L⁻¹ and 2.22e+11 L⁻¹ | RBC ([6]; Sixty Days After TPA): 4.55e+12 L⁻¹ and 4.31e+12 L⁻¹ and 4.04e+12 L⁻¹ and 4.1e+12 L⁻¹ and 3.34e+12 L⁻¹ and 4.56e+12 L⁻¹ | Rb ([6]; Sixty Days After TPA): 126 g/L and 96 g/L and 99 g/L (2×) and 123 g/L and 136 g/L | WBC ([6]; Sixty Days After TPA): 8.8e+09 L⁻¹ and 4.4e+09 L⁻¹ and 6.2e+09 L⁻¹ and 5.1e+09 L⁻¹ and 7.7e+09 L⁻¹ and 3.5e+09 L⁻¹ | PLt ([6]; Thirty Days After Stopping TPA): 2.72e+11 L⁻¹ and 1.93e+11 L⁻¹ and 2.78e+11 L⁻¹ and 2.24e+11 L⁻¹ and 1.78e+11 L⁻¹ | RBC ([6]; Thirty Days After Stopping TPA): 4.55e+12 L⁻¹ and 4.4e+12 L⁻¹ and 3.9e+12 L⁻¹ and 4.71e+12 L⁻¹ and 3.42e+12 L⁻¹ | Rb ([6]; Thirty Days After Stopping TPA): 130 g/L and 104 g/L and 110 g/L and 144 g/L and 100 g/L | WBC ([6]; Thirty Days After Stopping TPA): 7.5e+09 L⁻¹ and 6.5e+09 L⁻¹ and 8.4e+09 L⁻¹ and 3.8e+09 L⁻¹ and 4.8e+09 L⁻¹ | PLt ([6]; Thirty Days After TPA): 2.32e+11 L⁻¹ and 2.47e+11 L⁻¹ and 3.45e+11 L⁻¹ and 1.77e+11 L⁻¹ and 2.28e+11 L⁻¹ and 2.75e+11 L⁻¹ | RBC ([6]; Thirty Days After TPA): 4.48e+12 L⁻¹ and 3.83e+12 L⁻¹ and 4.03e+12 L⁻¹ and 3.2e+12 L⁻¹ and 4.32e+12 L⁻¹ and 4.35e+12 L⁻¹ | Rb ([6]; Thirty Days After TPA): 116 g/L and 113 g/L and 145 g/L and 121 g/L and 154 g/L and 148 g/L | WBC ([6]; Thirty Days After TPA): 5.9e+09 L⁻¹ and 5.2e+09 L⁻¹ and 4.3e+09 L⁻¹ and 4e+09 L⁻¹ and 4.5e+09 L⁻¹ and 8.9e+09 L⁻¹
